PubChem BioAssay (NCI)
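In this assay, cells in 96-well plates receive the compound at five concentrations for 48 hours. Endpoints are linearly interpolated between the surrounding concentrations. TGI denotes the concentration required for complete inhibition of growth.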

Test system: HOP-18 NSCLC
Experiment: NCI-60 cell line screen, 48 h

SMILES	TGI [µM]
NC(=O)C(N)=O	> 100
C#CCOc1c(C(=O)OCC)c(=O)n(C)c2ccccc12	> 100
